Test systems include SR leukemia; PC-3 prostate; A498 renal; TK-10 renal; SK-MEL-5 melanoma; OVCAR-5 ovarian; UO-31 renal; OVCAR-8 ovarian; IGROV1 ovarian; MDA-MB-435.
Holding throughout (test): NCI-60 cell line screen, 48 h

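1) Cells in 96-well plates. 2) Compound, 48 h, 5 concentrations. 3) Linear interpolation between surrounding doses. 4) Unreached endpoint = highest concentration. Abbreviation: GI50, concentration required for 50% inhibition of growth. Definition used: TGI = concentration required for complete inhibition of growth.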 Some results are limits rather than exact numbers.

As for `Cc1cc(N(CCCNc2ccnc3cc(Cl)ccc23)Cc2ccc3c(c2)OCO3)nc(N2CCCCC2)n1`, the GI50 is 1.41 µM in the experiment on SR leukemia; 2.1 µM in the experiment on PC-3 prostate; 2.14 µM in the experiment on A498 renal; 1.91 µM in the experiment on TK-10 renal; 1.75 µM in the experiment on SK-MEL-5 melanoma; 2.44 µM in the experiment with OVCAR-5 ovarian. Also, the GI50 with UO-31 renal is 1.25 µM; in the experiment with OVCAR-8 ovarian, 2.1 µM; in the experiment on IGROV1 ovarian, 1.58 µM; in the experiment with MDA-MB-435 it was 1.72 µM. The TGI stood at 4.14 µM with SR leukemia; 5.38 µM in the experiment with PC-3 prostate; 5.11 µM with A498 renal; 4.01 µM in the experiment with TK-10 renal; 3.14 µM in the experiment on SK-MEL-5 melanoma; 7.04 µM in the experiment with OVCAR-5 ovarian. The TGI is 2.82 µM in the experiment on UO-31 renal, 4.95 µM with OVCAR-8 ovarian, 3.87 µM in the experiment with IGROV1 ovarian and 3.27 µM in the experiment with MDA-MB-435.

As for `CC(C)C[C@H](NC(=O)CCn1ccc2ncccc2c1=O)B(O)O`, the GI50 in the experiment with SR leukemia was 3.08 µM; in the experiment with PC-3 prostate, 35.2 µM; in the experiment with A498 renal, 2.66 µM; with TK-10 renal it was 6.44 µM; with SK-MEL-5 melanoma, 3.97 µM; in the experiment on OVCAR-5 ovarian, 23.2 µM. Also, the GI50 with UO-31 renal was 19.6 µM; in the experiment on OVCAR-8 ovarian it was 27.4 µM; in the experiment on IGROV1 ovarian, 36.5 µM; in the experiment with MDA-MB-435 it was 2.6 µM. For the same compound, the TGI in the experiment with SR leukemia is over 100 µM; in the experiment on PC-3 prostate, over 100 µM; in the experiment with A498 renal, 21.3 µM; with TK-10 renal it was 61.8 µM; in the experiment with SK-MEL-5 melanoma, 19.2 µM; in the experiment with OVCAR-5 ovarian, over 100 µM. Also, the TGI is over 100 µM in the experiment on UO-31 renal, over 100 µM in the experiment with OVCAR-8 ovarian, over 94.3 µM in the experiment on IGROV1 ovarian and 8.86 µM in the experiment on MDA-MB-435.

With `CCc1ccc2nccc(NCCCN(C)C)c2c1[N+](=O)[O-]`, the TGI with SR leukemia was over 100 µM; in the experiment with PC-3 prostate it was over 100 µM; with A498 renal, over 100 µM; in the experiment with TK-10 renal it was over 100 µM; with SK-MEL-5 melanoma it was over 100 µM; with OVCAR-5 ovarian it was 90.8 µM. Further, the TGI in the experiment with UO-31 renal, in the experiment with OVCAR-8 ovarian, in the experiment with IGROV1 ovarian and in the experiment on MDA-MB-435 was over 100 µM each time.

As for `Nc1ccc(C(OC(=O)c2cc3ccccc3c(Cc3c(O)c(C(=O)OC(c4ccc(N)cc4)(c4ccc(N)cc4)c4ccc(N)cc4)cc4ccccc34)c2O)(c2ccc(N)cc2)c2ccc(N)cc2)cc1`, the GI50 with SR leukemia was 4.18 µM; in the experiment on PC-3 prostate, 1.22 µM; with A498 renal, 0.548 µM; in the experiment on TK-10 renal, 5.23 µM; with SK-MEL-5 melanoma, 0.455 µM; in the experiment with OVCAR-5 ovarian it was 2.7 µM. Besides, the GI50 is 3.66 µM in the experiment on UO-31 renal, 0.388 µM in the experiment with OVCAR-8 ovarian, 9.89 µM in the experiment on IGROV1 ovarian and 2.5 µM in the experiment on MDA-MB-435. Further, the TGI in the experiment with SR leukemia is over 100 µM; in the experiment with PC-3 prostate it was 20.4 µM; in the experiment on A498 renal, 5.25 µM; in the experiment on TK-10 renal, 21.3 µM; in the experiment on SK-MEL-5 melanoma, 2.3 µM; with OVCAR-5 ovarian it was 17.2 µM. The TGI with UO-31 renal turned out to be 63.4 µM; in the experiment on OVCAR-8 ovarian, 36.6 µM; with IGROV1 ovarian it was 85 µM; with MDA-MB-435, 30.3 µM.

Take `OCC(CCc1c[nH]c2ccccc12)c1c[nH]c2ccccc12` (stereo not given): the TGI with SR leukemia is 41.5 µM; with PC-3 prostate it was 32.3 µM; with A498 renal it was 30.2 µM; in the experiment with TK-10 renal, 37.8 µM; in the experiment with SK-MEL-5 melanoma it was 30.4 µM; in the experiment with OVCAR-5 ovarian it was 33.2 µM. For the same compound, the TGI amounted to 25.9 µM in the experiment on UO-31 renal, 46.6 µM with OVCAR-8 ovarian, 27.5 µM in the experiment on IGROV1 ovarian and 34.3 µM with MDA-MB-435.

For `C=C1C(OC/C=C/COC2O[C@@H]3O[C@@]4(C)CC[C@H]5[C@H](C)CC[C@@H](C2=C)[C@@]35OO4)O[C@@H]2O[C@@]3(C)CC[C@H]4[C@H](C)CC[C@@H]1[C@@]24OO3` (stereo not given in full), the GI50 in the experiment with SR leukemia is 0.0315 µM; in the experiment with PC-3 prostate it was under 0.0141 µM; in the experiment with A498 renal, 26 µM; in the experiment on TK-10 renal, 0.492 µM; with SK-MEL-5 melanoma, 3.58 µM; in the experiment with OVCAR-5 ovarian it was 0.0489 µM. The GI50 is 2.23 µM in the experiment on UO-31 renal, 1.96 µM in the experiment on OVCAR-8 ovarian, 1.6 µM with IGROV1 ovarian and 0.301 µM with MDA-MB-435. The TGI is 2.6 µM with SR leukemia; 32.5 µM in the experiment on PC-3 prostate; over 100 µM in the experiment with A498 renal; 16.9 µM with TK-10 renal; 27.3 µM with SK-MEL-5 melanoma; 18.8 µM with OVCAR-5 ovarian. The TGI in the experiment with UO-31 renal is over 39.4 µM; in the experiment with OVCAR-8 ovarian, over 36.6 µM; with IGROV1 ovarian it was over 36.6 µM; with MDA-MB-435, 21.5 µM.

For `O=c1oc2c3ccc4cnccc4c3[nH]c2c2ccccc12`, the GI50 in the experiment on SR leukemia was 1.78 µM; in the experiment on PC-3 prostate, 55.8 µM; in the experiment on A498 renal it was 95.5 µM; in the experiment with TK-10 renal, 43.8 µM; with SK-MEL-5 melanoma it was 8.01 µM; with OVCAR-5 ovarian, 16.9 µM. The GI50 is 22.9 µM with UO-31 renal, 16.1 µM with OVCAR-8 ovarian, 12.7 µM in the experiment on IGROV1 ovarian and 18.1 µM with MDA-MB-435. Also, the TGI was 4.19 µM in the experiment with SR leukemia; over 100 µM in the experiment with PC-3 prostate; over 100 µM with A498 renal; over 100 µM in the experiment on TK-10 renal; 22.2 µM in the experiment with SK-MEL-5 melanoma; 40.9 µM with OVCAR-5 ovarian. The TGI in the experiment on UO-31 renal was over 100 µM; in the experiment on OVCAR-8 ovarian, over 100 µM; in the experiment on IGROV1 ovarian it was over 100 µM; with MDA-MB-435, 34.2 µM.

The values are drawn from PubChem BioAssay (NCI).
